Results from patent US12479843B2, “Spiro ring-containing quinazoline compounds” (WIGEN BIOMEDICINE TECHNOLOGY (SHANGHAI) CO., LTD., priority 2019, dated 2025).

How the values were obtained:
pERK level in H358 cells = assay: pERK and ERK protein content assay in H358 cells (ELISA); type: cell-based; conditions: Homo sapiens, NCI-H358, compound 1 μM, 24 h, pERK/ERK ratio compared with DMSO group, read-out: Inhibition rate (%) of pERK level
Summary of the method: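 Percent inhibition of pERK relative to DMSO, from the ELISA pERK/ERK ratio in lysed H358 cells. Compound applied at 1 μM for 24 h after one day of growth.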

H358 cells = assay: Antiproliferative activity against H358 cells (Cell Titer Glow, ultra-low attachment plate); type: cell-based; conditions: Homo sapiens, NCI-H358, 72 h, 96-well ultra-low attachment plate, three days after addition of compound, Cell Titer Glow
Procedure: 2500 H358 cells were seeded in a 96-well ultra-low attachment plate (corning, 7007). After one day of growth, a serially diluted compound (a maximum concentration of 5 μM, 5-fold dilution, a total of five doses) was added. Three days after the addition of the compound, Cell Titer Glow (Promega, G9681) was added to evaluate pellet growth, and the IC50 value was calculated.

| Compound | IC50 (H358 cells) [nM] | inhibition at 1 µM (pERK level in H358 cells) [%] |
| --- | --- | --- |
| C=CC(=O)N1CC2(CCN(c3nc(N4CC[C@@H](N5CC[C@@H](C)C5)C4)nc4c(OCC(F)(F)F)c(-c5c(C)ccc6[nH]ncc56)c(C5CC5)cc34)CC2)C1 [Compound 301] | < 300 | > 90 |
| C=CC(=O)N1CC2(CCN(c3nc(N4CC[C@H](N5C6CCC5CC6)C4)nc4c(OCC(F)(F)F)c(-c5c(C)ccc6[nH]ncc56)c(C5CC5)cc34)CC2)C1 [Compound 302] | < 300 | > 90 |
| C=CC(=O)N1CC2(CCN(c3nc(N4CC[C@@H](N5C6CCC5CC6)C4)nc4c(OCC(F)(F)F)c(-c5c(C)ccc6[nH]ncc56)c(C5CC5)cc34)CC2)C1 [Compound 303] | < 300 | > 90 |
| C=CC(=O)N1CC2(CCN(c3nc(N4CC5(CSC5)C4)nc4c(OCC(F)(F)F)c(-c5c(C)ccc6[nH]ncc56)c(C5CC5)cc34)CC2)C1 [Compound 304] | 300 to 1000 | 50 to 90 |
| C=CC(=O)N1CC2(CCN(c3nc(N4CC5(C4)C[S+]([O-])C5)nc4c(OCC(F)(F)F)c(-c5c(C)ccc6[nH]ncc56)c(C5CC5)cc34)CC2)C1 [Compound 305] | 300 to 1000 | 50 to 90 |
| C=CC(=O)N1CC2(CCN(c3nc(N4CC5(C4)CS(=O)(=O)C5)nc4c(OCC(F)(F)F)c(-c5c(C)ccc6[nH]ncc56)c(C5CC5)cc34)CC2)C1 [Compound 306] | < 300 | > 90 |
| C=CC(=O)N1CC2(CCN(c3nc(N4CC5(CCS(=O)(=O)CC5)C4)nc4c(OCC(F)(F)F)c(-c5c(C)ccc6[nH]ncc56)c(C5CC5)cc34)CC2)C1 [Compound 307] | < 300 | > 90 |
| C=CC(=O)N1CC2(CCN(c3nc(OC4CC5CCC4N5C)nc4c(OCC(F)(F)F)c(-c5c(C)ccc6[nH]ncc56)c(C5CC5)cc34)CC2)C1 (centres unmarked) [Compound 308] | < 300 | > 90 |
| C=CC(=O)N1CC2(CCN(c3nc(OC4CC5CCC4N5CCOC)nc4c(OCC(F)(F)F)c(-c5c(C)ccc6[nH]ncc56)c(C5CC5)cc34)CC2)C1 (centres unmarked) [Compound 309] | < 300 | > 90 |
| C=CC(=O)N1CC2(CCN(c3nc(OC4CCS(=O)(=O)C5(CC5)C4)nc4c(OCC(F)(F)F)c(-c5c(C)ccc6[nH]ncc56)c(C5CC5)cc34)CC2)C1 (centres unmarked) [Compound 310] | 300 to 1000 | 50 to 90 |
| C=CC(=O)N1CC2(CCN(c3nc(OC4CCS(=O)(=O)C(C)(C)C4)nc4c(OCC(F)(F)F)c(-c5c(C)ccc6[nH]ncc56)c(C5CC5)cc34)CC2)C1 (centres unmarked) [Compound 311] | < 300 | > 90 |
| C=CC(=O)N1CC2(CCN(c3nc(OC4CC5CCC(C4)S5(=O)=O)nc4c(OCC(F)(F)F)c(-c5c(C)ccc6[nH]ncc56)c(C5CC5)cc34)CC2)C1 (centres unmarked) [Compound 312] | < 300 | > 90 |
| C=CC(=O)N1CC2(CCN(c3nc(OC4C5CCC4CS(=O)(=O)C5)nc4c(OCC(F)(F)F)c(-c5c(C)ccc6[nH]ncc56)c(C5CC5)cc34)CC2)C1 (centres unmarked) [Compound 313] | < 300 | > 90 |
| C=CC(=O)N1CC2(CCN(c3nc(N4CC(N5C6CCC5CC6)C4)nc4c(OCC(F)(F)F)c(-c5c(C)c(C)cc6[nH]ncc56)c(C5CC5)cc34)CC2)C1 [Compound 326] | < 300 | > 90 |
| C=CC(=O)N1CC2(CCN(c3nc(N4CC(N5C6CCC5CC6)C4)nc4c(OCC(F)(F)F)c(-c5c(C)c(F)cc6[nH]ncc56)c(C5CC5)cc34)CC2)C1 [Compound 329] | < 300 | > 90 |
| C=CC(=O)N1CC2(CCN(c3nc(N4CC(N5C6CCC5CC6)C4)nc4c(OCC)c(-c5c(C)ccc6[nH]ncc56)c(C5CC5)cc34)CC2)C1 [Compound 332] | < 300 | > 90 |
| C=CC(=O)N1CC2(CCN(c3nc(N4CC(N5C6CCC5CC6)C4)nc4c(OCC(F)F)c(-c5c(C)ccc6[nH]ncc56)c(C5CC5)cc34)CC2)C1 [Compound 335] | < 300 | > 90 |
| C=CC(=O)N1CC2(CCN(c3nc(N4CC(N5C6CCC5CC6)C4)nc4c(OCC(F)(F)F)c(-c5c(C)ccc6[nH]ncc56)c(C=C)cc34)CC2)C1 [Compound 341] | < 300 | > 90 |

Continued, in another order:

| IC50 (H358 cells) [nM] | Compound | inhibition at 1 µM (pERK level in H358 cells) [%] |
| --- | --- | --- |
| < 300 | C=CC(=O)N1CC2(CCN(c3nc(O[C@H]4C[C@@H]5C[C@H]4CS5(=O)=O)nc4c(OCC(F)(F)F)c(-c5c(C)ccc6[nH]ncc56)c(C5CC5)cc34)CC2)C1 [Compound 314] | > 90 |
| < 300 | C=CC(=O)N1CC2(CCN(c3nc(O[C@@H]4C[C@@H]5C[C@H]4CS5(=O)=O)nc4c(OCC(F)(F)F)c(-c5c(C)ccc6[nH]ncc56)c(C5CC5)cc34)CC2)C1 [Compound 315] | > 90 |
| < 300 | C=CC(=O)N1CC2(CCN(c3nc(OC4CCS(=O)(=O)CC4C)nc4c(OCC(F)(F)F)c(-c5c(C)ccc6[nH]ncc56)c(C5CC5)cc34)CC2)C1 (centres unmarked) [Compound 316] | > 90 |
| < 300 | C=CC(=O)N1CC2(CCN(c3nc(OC4C(C)CS(=O)(=O)CC4C)nc4c(OCC(F)(F)F)c(-c5c(C)ccc6[nH]ncc56)c(C5CC5)cc34)CC2)C1 (centres unmarked) [Compound 317] | > 90 |
| < 300 | C=CC(=O)N1CC2(CCN(c3nc(O[C@@H]4CCS(=O)(=O)C[C@H]4N(C)C)nc4c(OCC(F)(F)F)c(-c5c(C)ccc6[nH]ncc56)c(C5CC5)cc34)CC2)C1 [Compound 318] | > 90 |
| < 300 | C=CC(=O)N1CC2(CCN(c3nc(O[C@H]4CCS(=O)(=O)C[C@@H]4N(C)C)nc4c(OCC(F)(F)F)c(-c5c(C)ccc6[nH]ncc56)c(C5CC5)cc34)CC2)C1 [Compound 319] | > 90 |
| < 300 | C=CC(=O)N1CC2(CCN(c3nc(N4CC(N5CCC5)C4)nc4c(OCC(F)(F)F)c(-c5c(C)ccc6[nH]ncc56)c(C(=C)C)cc34)CC2)C1 [Compound 320] | > 90 |
| < 300 | C=CC(=O)N1CC2(CCN(c3nc(N4CC(N5CCCC5)C4)nc4c(OCC(F)(F)F)c(-c5c(C)ccc6[nH]ncc56)c(C(=C)C)cc34)CC2)C1 [Compound 321] | > 90 |
| < 300 | C=CC(=O)N1CC2(CCN(c3nc(N4CC(N5CCC5)C4)nc4c(OCC(F)(F)F)c(-c5c(C)ccc6[nH]ncc56)c(C5(C)CC5)cc34)CC2)C1 [Compound 322] | > 90 |
| < 300 | C=CC(=O)N1CC2(CCN(c3nc(N4CC(N5CCCC5)C4)nc4c(OCC(F)(F)F)c(-c5c(C)ccc6[nH]ncc56)c(C5(C)CC5)cc34)CC2)C1 [Compound 323] | > 90 |
| < 300 | C=CC(=O)N1CC2(CCN(c3nc(N4CC(N5CCC(C)C5)C4)nc4c(OCC(F)(F)F)c(-c5c(C)c(C)cc6[nH]ncc56)c(C5CC5)cc34)CC2)C1 (centres unmarked) [Compound 324] | > 90 |
| < 300 | C=CC(=O)N1CC2(CCN(c3nc(N4CC(N5CC[C@@H](C)C5)C4)nc4c(OCC(F)(F)F)c(-c5c(C)c(C)cc6[nH]ncc56)c(C5CC5)cc34)CC2)C1 [Compound 325] | > 90 |
| < 300 | C=CC(=O)N1CC2(CCN(c3nc(N4CC(N5CC[C@H](C)C5)C4)nc4c(OCC(F)(F)F)c(-c5c(C)c(F)cc6[nH]ncc56)c(C5CC5)cc34)CC2)C1 [Compound 327] | > 90 |
| < 300 | C=CC(=O)N1CC2(CCN(c3nc(N4CC(N5CC[C@@H](C)C5)C4)nc4c(OCC(F)(F)F)c(-c5c(C)c(F)cc6[nH]ncc56)c(C5CC5)cc34)CC2)C1 [Compound 328] | > 90 |
| < 300 | C=CC(=O)N1CC2(CCN(c3nc(N4CC(N5CC[C@H](C)C5)C4)nc4c(OCC)c(-c5c(C)ccc6[nH]ncc56)c(C5CC5)cc34)CC2)C1 [Compound 330] | > 90 |
| < 300 | C=CC(=O)N1CC2(CCN(c3nc(N4CC(N5CC[C@@H](C)C5)C4)nc4c(OCC)c(-c5c(C)ccc6[nH]ncc56)c(C5CC5)cc34)CC2)C1 [Compound 331] | > 90 |
| < 300 | C=CC(=O)N1CC2(CCN(c3nc(N4CC(N5CC[C@H](C)C5)C4)nc4c(OCC(F)F)c(-c5c(C)ccc6[nH]ncc56)c(C5CC5)cc34)CC2)C1 [Compound 333] | > 90 |
| < 300 | C=CC(=O)N1CC2(CCN(c3nc(N4CC(N5CC[C@@H](C)C5)C4)nc4c(OCC(F)F)c(-c5c(C)ccc6[nH]ncc56)c(C5CC5)cc34)CC2)C1 [Compound 334] | > 90 |
| < 300 | C=CC(=O)N1CC2(CCN(c3nc(N4CC(N5CCC5)C4)nc4c(OCC(F)(F)F)c(-c5c(C)ccc6[nH]ncc56)c(C=C)cc34)CC2)C1 [Compound 336] | > 90 |
| < 300 | C=CC(=O)N1CC2(CCN(c3nc(N4CC(N5CCCC5)C4)nc4c(OCC(F)(F)F)c(-c5c(C)ccc6[nH]ncc56)c(C=C)cc34)CC2)C1 [Compound 337] | > 90 |
| < 300 | C=CC(=O)N1CC2(CCN(c3nc(N4CC5(CCN(CCOC)CC5)C4)nc4c(OCC(F)(F)F)c(-c5c(C)ccc6[nH]ncc56)c(C=C)cc34)CC2)C1 [Compound 338] | > 90 |
| < 300 | C=CC(=O)N1CC2(CCN(c3nc(N4CC(N5CC[C@H](C)C5)C4)nc4c(OCC(F)(F)F)c(-c5c(C)ccc6[nH]ncc56)c(C=C)cc34)CC2)C1 [Compound 339] | > 90 |
